Assay results from patent US10875876B2, “Cyclized sulfamoylarylamide derivatives and the use thereof as medicaments for the treatment of hepatitis B” (priority 2015, dated 2020).
pEC50: −log10 of the molar value.

Experiments:
HepG2 cells = assay: Cytotoxicity in HepG2 cells, Resazurin assay; conditions: read-out: TOX-HepG2-4 d CC50; HepG2 cells incubated for 4 days, viability by Resazurin assay
HBV = assay: anti HBV activity, HepG2.117 cell line, intracellular HBV DNA by realtime PCR; assay type: cell-based; conditions: HepG2.117 cell line (Tet-off), 3 days of treatment, intracellular HBV DNA quantified by realtime PCR; read-out: HBV-AVE-HepG2.117 EC50
Outline: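 HepG2.117 cells, a Tet-off line that replicates HBV without doxycycline, were induced and then treated in duplicate with serially diluted compound. After 3 days, intracellular HBV DNA was quantified by real-time PCR with an HBV-specific primer set and probe.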

Compound: Cc1cccc(CC2(C)COc3c(cn(C)c3C(=O)Nc3ccc(F)c(F)c3)S(=O)(=O)N2)n1 (single isomer, unassigned) [Compound 172b, N-(3,4-difluorophenyl)-3,7-dimethyl-3-[(6-methyl-2-pyridyl)methyl]-1,1-dioxo-2,4-dihydropyrrolo[3,4-b][1,4,5]oxathiazepine-6-carboxamide]
- CC50 (HepG2 cells): > 25000 nM
- pEC50 (HBV): 7.19

Compound: Cn1cc2c(c1C(=O)Nc1ccc(F)c(C#N)c1)CCC(C(C)(C)O)NS2(=O)=O (single isomer, unassigned) [Compound 116b, N-(3-cyano-4-fluoro-phenyl)-3-(1-hydroxy-1-methyl-ethyl)-7-methyl-1,1-dioxo-2,3,4,5-tetrahydropyrrolo[3,4-f]thiazepine-6-carboxamide]
- CC50 (HepG2 cells): > 25000 nM
- pEC50 (HBV): < 6.46

Compound: CCC(O)[C@H]1COc2c(cn(C)c2C(=O)Nc2ccc(F)c(F)c2)S(=O)(=O)N1 (stereo partly drawn) [Compound 130b, (3R)—N-(3,4-difluorophenyl)-3-(1-hydroxypropyl)-7-methyl-1,1-dioxo-3,4-dihydro-2H-pyrrolo[3,4-b][1,4,5]oxathiazepine-6-carboxamide]
- CC50 (HepG2 cells): > 25000 nM
- pEC50 (HBV): 7.92

Compound: Cc1cc(NC(=O)c2c3c(cn2C)S(=O)(=O)N[C@@H](C(O)C2CC2)CO3)ccc1F (single isomer, unassigned) [Compound 206b, 3-[cyclopropyl(hydroxy)methyl]-N-(4-fluoro-3-methyl-phenyl)-7-methyl-1,1-dioxo-3,4-dihydro-2H-pyrrolo[3,4-b][1,4,5]oxathiazepine-6-carboxamide]
- CC50 (HepG2 cells): > 25000 nM
- pEC50 (HBV): 7.92

Compound: Cn1cc2c(c1C(=O)Nc1ccc(F)c(F)c1)O[C@@H](C(F)(F)F)[C@H](CO)NS2(=O)=O [compound 244]
- CC50 (HepG2 cells): > 25000 nM
- pEC50 (HBV): < 6.30

Compound: C[C@@H]1Oc2c(cn(C)c2C(=O)Nc2ccc(F)c(C#N)c2)S(=O)(=O)N[C@@H]1CO [compound 235]
- CC50 (HepG2 cells): > 25000 nM
- pEC50 (HBV): < 6.30

Compound: C[C@@H]1Oc2c(cn(C)c2C(=O)Nc2ccnc(Br)c2)S(=O)(=O)N[C@@H]1CO [compound 236]
- CC50 (HepG2 cells): > 25000 nM
- pEC50 (HBV): 6.47

Compound: CCC(O)[C@H]1COc2c(cn(C)c2C(=O)Nc2ccc(F)c(C#N)c2)S(=O)(=O)N1 (stereo partly drawn) [Compound 122b, (3R)—N-(3-cyano-4-fluoro-phenyl)-3-(1-hydroxypropyl)-7-methyl-1,1-dioxo-3,4-dihydro-2H-pyrrolo[3,4-b][1,4,5]oxathiazepine-6-carboxamide]
- CC50 (HepG2 cells): > 25000 nM
- pEC50 (HBV): 8.05

Compound: Cn1cc2c(c1C(=O)Nc1ccc(F)c(F)c1)OC[C@H](C(O)C1CC1)NS2(=O)=O (stereo partly drawn) [Compound 105b, (3R)-3-[cyclopropyl(hydroxy)methyl]-N-(3,4-difluorophenyl)-7-methyl-1,1-dioxo-3,4-dihydro-2H-pyrrolo[3,4-b][1,4,5]oxathiazepine-6-carboxamide]
- CC50 (HepG2 cells): > 25000 nM
- pEC50 (HBV): 7.96

Compound: Cn1cc2c(c1C(=O)Nc1ccc(F)c(C#N)c1)OC[C@H](C(O)C1CC1)NS2(=O)=O (stereo partly drawn) [Compound 120b, (3R)—N-(3-cyano-4-fluoro-phenyl)-3-[cyclopropyl(hydroxy)methyl]-7-methyl-1,1-dioxo-3,4-dihydro-2H-pyrrolo[3,4-b][1,4,5]oxathiazepine-6-carboxamide]
- CC50 (HepG2 cells): > 25000 nM
- pEC50 (HBV): 7.96

Compound: Cn1ccc(CC2(C)COc3c(cn(C)c3C(=O)Nc3ccnc(C(F)F)c3)S(=O)(=O)N2)n1 (single isomer, unassigned) [Compound 217b, N-[2-(difluoromethyl)-4-pyridyl]-3,7-dimethyl-3-[(1-methylpyrazol-3-yl)methyl]-1,1-dioxo-2,4-dihydropyrrolo[3,4-b][1,4,5]oxathiazepine-6-carboxamide]
- CC50 (HepG2 cells): > 25000 nM
- pEC50 (HBV): 7.00

Compound: CC(NCC(F)(F)F)C1COc2c(cn(C)c2C(=O)Nc2ccc(F)c(C#N)c2)S(=O)(=O)N1 (single isomer, unassigned) [Compound 161c, N-(3-cyano-4-fluoro-phenyl)-7-methyl-1,1-dioxo-3-[1-(2,2,2-trifluoroethylamino)ethyl]-3,4-dihydro-2H-pyrrolo[3,4-b][1,4,5]oxathiazepine-6-carboxamide]
- CC50 (HepG2 cells): > 25000 nM
- pEC50 (HBV): 7.96

Compound: Cn1cc2c(c1C(=O)Nc1ccc(F)c(C(F)F)c1)CCC(C(C)(C)O)NS2(=O)=O (single isomer, unassigned) [Compound 150b, N-[3-(difluoromethyl)-4-fluoro-phenyl]-3-(1-hydroxy-1-methyl-ethyl)-7-methyl-1,1-dioxo-2,3,4,5-tetrahydropyrrolo[3,4-f]thiazepine-6-carboxamide]
- CC50 (HepG2 cells): > 25000 nM
- pEC50 (HBV): 8.30

Compound: CC1C/C=C\c2c(cn(C)c2C(=O)Nc2ccc(F)c(F)c2)S(=O)(=O)N1 (single isomer, unassigned) [Compound 15b, (5Z)—N-(3,4-difluorophenyl)-3,8-dimethyl-1,1-dioxo-3,4-dihydro-2H-pyrrolo[3,4-g]thiazocine-7-carboxamide]
- CC50 (HepG2 cells): > 25000 nM
- pEC50 (HBV): < 6.30

Compound: Cc1cc(CC2(C)COc3c(cn(C)c3C(=O)Nc3ccnc(Cl)c3)S(=O)(=O)N2)no1 (single isomer, unassigned) [Compound 213b, N-(2-chloro-4-pyridyl)-3,7-dimethyl-3-[(5-methylisoxazol-3-yl)methyl]-1,1-dioxo-2,4-dihydropyrrolo[3,4-b][1,4,5]oxathiazepine-6-carboxamide]
- CC50 (HepG2 cells): > 25000 nM
- pEC50 (HBV): 7.80

Compound: Cn1cc2c(c1C(=O)Nc1ccc(F)c(C#N)c1)OCC(C)(CO)NS2(=O)=O (single isomer, unassigned) [Compound 210b, N-(3-cyano-4-fluoro-phenyl)-3-(hydroxymethyl)-3,7-dimethyl-1,1-dioxo-2,4-dihydropyrrolo[3,4-b][1,4,5]oxathiazepine-6-carboxamide]
- CC50 (HepG2 cells): > 25000 nM
- pEC50 (HBV): 7.47

Compound: Cn1cc2c(c1C(=O)Nc1ccc(F)c(F)c1)OC[C@@H](C(O)C1CC1)NS2(=O)=O (single isomer, unassigned) [Compound 92b]
- CC50 (HepG2 cells): > 25000 nM
- pEC50 (HBV): 6.77

Compound: Cn1cc2c(c1C(=O)Nc1cc(F)c(F)c(F)c1)OC[C@H](C(O)C1CC1)NS2(=O)=O (single isomer, unassigned) [Compound 208b, 3-[cyclopropyl(hydroxy)methyl]-7-methyl-1,1-dioxo-N-(3,4,5-trifluorophenyl)-3,4-dihydro-2H-pyrrolo[3,4-b][1,4,5]oxathiazepine-6-carboxamide]
- CC50 (HepG2 cells): > 25000 nM
- pEC50 (HBV): 7.96

Compound: CC1C=Cc2c(cn(C)c2C(=O)Nc2ccc(F)c(F)c2)S(=O)(=O)N1 (single isomer, unassigned) [Compound 7b, N-(3,4-difluorophenyl)-3,7-dimethyl-1,1-dioxo-2,3-dihydropyrrolo-[3,4-f]thiazepine-6-carboxamide]
- CC50 (HepG2 cells): > 25000 nM
- pEC50 (HBV): 8.15

Compound: Cc1cccc(C2(C)COc3c(cn(C)c3C(=O)Nc3ccc(F)c(F)c3)S(=O)(=O)N2)n1 (single isomer, unassigned) [Compound 168b, N-(3,4-difluorophenyl)-3,7-dimethyl-3-(6-methyl-2-pyridyl)-1,1-dioxo-2,4-dihydropyrrolo[3,4-b][1,4,5]oxathiazepine-6-carboxamide]
- CC50 (HepG2 cells): > 25000 nM
- pEC50 (HBV): 7.82

Compound: Cn1cc2c(c1C(=O)Nc1cc(F)c(F)c(F)c1)CCC(C(C)(C)O)NS2(=O)=O (single isomer, unassigned) [Compound 149b, 3-(1-hydroxy-1-methyl-ethyl)-7-methyl-1,1-dioxo-N-(3,4,5-trifluorophenyl)-2,3,4,5-tetrahydropyrrolo[3,4-f]thiazepine-6-carboxamide]
- CC50 (HepG2 cells): > 25000 nM
- pEC50 (HBV): 8.00

Compound: CC1CCc2c(cn(C)c2C(=O)Nc2ccc(F)c(F)c2)S(=O)(=O)N1 (single isomer, unassigned) [Compound 10b, N-(3,4-difluorophenyl)-3,7-dimethyl-1,1-dioxo-2,3,4,5-tetrahydropyrrolo[3,4-f]thiazepine-6-carboxamide]
- CC50 (HepG2 cells): > 25000 nM
- pEC50 (HBV): 8.22

Compound: Cn1cc2c(c1C(=O)Nc1ccnc(Cl)c1)OCC(C)(CO)NS2(=O)=O (single isomer, unassigned) [Compound 204b, N-(2-chloro-4-pyridyl)-3-(hydroxymethyl)-3,7-dimethyl-1,1-dioxo-2,4-dihydropyrrolo[3,4-b][1,4,5]oxathiazepine-6-carboxamide]
- CC50 (HepG2 cells): > 25000 nM
- pEC50 (HBV): < 6.90

Compound: CC(C)C(O)C1COc2c(cn(C)c2C(=O)Nc2ccc(F)c(C#N)c2)S(=O)(=O)N1 (stereo not drawn) [Compound 119b, N-(3-cyano-4-fluoro-phenyl)-3-(1-hydroxy-2-methyl-propyl)-7-methyl-1,1-dioxo-3,4-dihydro-2H-pyrrolo[3,4-b][1,4,5]oxathiazepine-6-carboxamide]
- CC50 (HepG2 cells): > 25000 nM
- pEC50 (HBV): 8.22

Compound: CC(C)C1C=Cc2c(cn(C)c2C(=O)Nc2ccc(F)c(F)c2)S(=O)(=O)N1 (single isomer, unassigned) [Compound 79b, N-(3,4-difluorophenyl)-3-isopropyl-7-methyl-1,1-dioxo-2,3-dihydropyrrolo[3,4-f]thiazepine-6-carboxamide]
- CC50 (HepG2 cells): > 25000 nM
- pEC50 (HBV): 8.70

Compound: Cn1cc2c(c1C(=O)Nc1ccc(F)c(C#N)c1)CCC(C(F)(F)F)NS2(=O)=O (single isomer, unassigned) [Compound 60b, N-(3-cyano-4-fluoro-phenyl)-7-methyl-1,1-dioxo-3-(trifluoromethyl)-2,3,4,5-tetrahydropyrrolo[3,4-f]thiazepine-6-carboxamide]
- CC50 (HepG2 cells): > 25000 nM
- pEC50 (HBV): 8.30

Compound: Cn1cc2c(c1C(=O)Nc1ccnc(C(F)F)c1)OCC(C)(CO)NS2(=O)=O (single isomer, unassigned) [Compound 215b, N-[2-(difluoromethyl)-4-pyridyl]-3-(hydroxymethyl)-3,7-dimethyl-1,1-dioxo-2,4-dihydropyrrolo[3,4-b][1,4,5]oxathiazepine-6-carboxamide]
- CC50 (HepG2 cells): > 25000 nM
- pEC50 (HBV): < 6.90
